Reference: patent EP0465323A1, “Pyrimidin derivatives, angiotensin II receptor antagonists, their process of preparation and pharmaceutical compositions containing them” (LABORATOIRES UPSA, priority 1990, dated 1992)

Tested on: récepteurs surrénaliens de l'angiotensine II
Assay: Displacement of radioligand [125I]-SIAII specifically bound to rat adrenal angiotensin II receptors
Type: binding
Settings: rat adrenal homogenate, 60 min at 25°C
Description: L'affinité des produits des exemples pour les récepteurs de l'angiotensine Il est évaluée par technique de déplacement d'un radioligand spécifiquement fixé sur les récepteurs surrénaliens de l'angiotensine II, chez le rat.
Une aliquote d'un homogénat de surrénales de rat incube en présence d'une concentration unique de [^125| ] - SIAII (Sar^1, Tyr^4, lle^8- angiotensine II), antagoniste des récepteurs de l'angiotensine II, et de deux concentrations d'agents compétiteurs (10^-5 M, 10-^7 M), durant 60 min à 25°C.
La réaction est achevée par ajout de tampon, puis rapide filtration à travers des filtres de papier de verre. La liaison non spécifique est déterminée en présence d'angiotensine II.
Les résultats sont exprimés, pour les concentrations testées, en pourcentage de déplacement du radioligand spécifiquement fixé sur les récepteurs surrénaliens de l'angiotensine II.

SMILES | % de déplacement du ligand marqué (competitor 1E-5M, 10 µM) [%] | % de déplacement du ligand marqué (competitor 1E-7M, 0.1 µM) [%]
CCCc1nc(C)nc(N2CCN(c3ccccc3OC)CC2)c1Cc1ccc(NC(=O)c2ccccc2S(=O)(=O)O)cc1 [Exemple 58, Acide [[n-Propyl-6 méthyl-2 ((méthoxy-2 phényl)pipérazine-yl-4)-4 pyrimidine-yl-5]méthylphényl-yl-4] amino carbonyl-2 benzène sulfonique] | 78 | 53
CCCc1nc(C)nc(SCCO)c1Cc1ccc(NC(=O)c2ccccc2S(=O)(=O)O)cc1 [Exemple 54, Acide [(n-Propyl-6 méthyl-2 hydroxyéthylmercapto-4 pyrimidine-yl-5)methylphenyl-yl-4] amino carbonyl-2 benzène sulfonique] | 84 | 65
CCCc1nc(C)nc(N2CCOCC2)c1Cc1ccc(NC(=O)c2ccccc2S(=O)(=O)O)cc1 [Exemple 56, Acide [[n-Propyl-6 méthyl-2 (morpholine-yl-1)-4 pyrimidine-yl-5]méthylphényl-yl-4] amino carbonyl-2 benzène sulfonique] | 86 | 59
CCCc1nc(C)nc(OC)c1Cc1ccc(-c2ccccc2-c2nn[nH]n2)cc1 [Exemple 31, n-Propyl-6 méthy1-2 méthoxy-4 [(tétrazol-yl-5)-2' biphényl-yl-4] méthyl-5 pyrimidine] | 71 | 51
CCCCc1nc(C)nc(N)c1Cc1ccc(NC(=O)c2ccccc2S(=O)(=O)O)cc1 [Exemple 57, Acide [(n-Butyl-6 méthyl-2 amino-4 pyrimidine-yl-5)méthylphényl-yl-4] amino carbonyl-2 benzène sulfonique] | 80 | 69
CCCCc1nc(C(C)C)nc(SCCO)c1Cc1ccc(NC(=O)c2ccccc2S(=O)(=O)O)cc1 [Exemple 78, Acide [[n-butyl-6 isopropyl-2 (hydroxy éthyl thio)-4 pyrimidine-yl-5]méthylphényl-yl-4] amino carbonyl-2 benzène sulfonique] | 74 | 41
CCCc1nc(C)nc(SC)c1Cc1ccc(NC(=O)c2ccccc2S(=O)(=O)O)cc1 [Exemple 59, Acide [[n-Propyl-6 méthyl-2 méthylthio-4 pyrimidine-yl-5]méthylphényl-yl-4] amino carbonyl-2 benzène sulfonique] | 89 | 57
CCCCc1nc(C)nc(SCC(=O)OCC)c1Cc1ccc(NC(=O)c2ccccc2S(=O)(=O)O)cc1 [Exemple 61, Acide [[n-Butyl-6 Méthyl-2 (éthoxycarbonyl méthyl thio)-4 pyrimidine-yl-5]méthylphényl-yl-4] amino carbonyl-2 benzène sulfonique] | 96 | 63
CCCCc1nc(-c2ccccc2)nc(SCC(=O)OCC)c1Cc1ccc(NC(=O)c2ccccc2S(=O)(=O)O)cc1 [Exemple 75, Acide [[n-butyl-6 phényl-2 (éthoxy carbonyl méthyl thio)-4 pyrimidine-yl-5]méthylphényl-yl-4] amino carbonyl-2 benzène sulfonique] | 72 | 0
CCCc1nc(C)n(CC(=O)OCC)c(=O)c1Cc1ccc(NC(=O)c2ccccc2S(=O)(=O)O)cc1 [Exemple 13] | 96 | 64
CCCCc1nc(C)nc(SCCO)c1Cc1ccc(NC(=O)c2ccccc2S(=O)(=O)O)cc1 [Exemple 55, Acide [(n-butyl-6 méthyl-2 hydroxyéthylmercapto-4 pyrimidine-yl-5)méthylphényl-yl-4] amino carbonyl-2 benzène sulfonique] | 86 | 60
CCCc1nc(C)nc(SCC(=O)OCC)c1Cc1ccc(NC(=O)c2ccccc2S(=O)(=O)O)cc1 [Exemple 24, Acide [[n-Propyl-6 méthyl-2 (éthoxycarbonyl méthyl mercapto)-4 pyrimidine-yl-5]méthylphényl-yl-4] amino carbonyl-2 benzène sulfonique] | 93 | 62
CCCc1nc(C)n(CC(=O)OCC)c(=O)c1Cc1ccc(-c2ccccc2-c2nn[nH]n2)cc1 [Exemple 32, [n-Propyl-4 méthyl-2 oxo-6 [(tétrazol-yl-5)-2' biphényl-yl-4]méthyl-5 pyrimidine-yl-1 (6H)-] acétate d'éthyle] | 94 | 67
CCCc1nc(C)n(CC(=O)O)c(=O)c1Cc1ccc(NC(=O)c2c(Cl)ccc(Cl)c2C(=O)O)cc1 [Exemple 14, Acide [n-propyl-4 méthyl-2 oxo-6 [(carboxy-2 dichloro-3,6-phényl)carbonylamino-4 phénylméthyl]-5 pyrimidine-yl-1 (6H)-] acétique] | 81 | 38
CCCc1nc(C)nc(SCC(=O)OCC)c1Cc1ccc(-c2ccccc2-c2nn[nH]n2)cc1 [Exemple 33, [n-Propyl-6 méthyl-2 [(tétrazol-yl-5)-2' biphényl-yl-4]méthyl-5 pyrimidine-yl-4] mercapto acétate d'éthyle] | 69 | 62
CCCc1nc(C)nc(OC(=O)N(C)C)c1Cc1ccc(NC(=O)c2ccccc2S(=O)(=O)O)cc1 [Exemple 27, Acide [[n-propyl-6 méthyl-2 (N,N-diméthyl amino carbonyloxy)-4 pyrimidine-yl-5]méthylphényl-yl-4] amino carbonyl-2 benzène sulfonique] | 76 | 20
CCCc1nc(C)nc(OCCO)c1Cc1ccc(-c2ccccc2C(=O)O)cc1 [Exemple 16, Acide [n-propyl-6 méthyl-2 hydroxy éthyloxy-4 pyrimidine-yl-5] méthyl-4' biphényl-2 carboxylique] | 65 | 31
CCCCc1nc(-c2ccccc2)nc(SCCO)c1Cc1ccc(NC(=O)c2ccccc2S(=O)(=O)O)cc1 [Exemple 77, Acide [[n-butyl-6 phényl-2 (hydroxy éthyl thio)-4 pyrimidine-yl-5]méthylphényl-yl-4] amino carbonyl-2 benzène sulfonique] | 63 | 4
CCCCc1nc(C(C)C)nc(SCC(=O)OCC)c1Cc1ccc(NC(=O)c2ccccc2S(=O)(=O)O)cc1 [Exemple 76, Acide [[n-butyl-6 isopropyl-2 (éthoxy carbonyl méthyl thio)-4 pyrimidine-yl-5]méthylphényl-yl-4] amino carbonyl-2 benzène sulfonique] | 93 | 37
